Results from publication PMC10967270, “Intrapulmonary and Systemic Pharmacokinetics of Colistin Following Nebulization of Low-Dose Colistimethate Sodium in Patients with Ventilator-Associated Pneumonia Caused by Carbapenem-Resistant Acinetobacter baumannii” (Antibiotics, 2024).
Positions of bridges follow the written chain, without caps; N, C: chain ends. Non-standard residues stand in square brackets, D forms with d. Residues, ends and D or L forms follow the SMILES beside them. *: point of attachment. X1 = CC[C@H](C)CCCCC(=O)*; Dab = NCC[C@H](N)C(=O)O

Legend:
[1] = cited from earlier work
Method: (§1) We investigated whether the fAUC values of individual patients were associated with clinical or microbiological outcomes (Table 3). Using individual estimates of CL derived from the final PK model, we calculated the steady-state fAUC for each patient when a total of 3.75 MIU (=300 mg CMS = 112.5 mg CBA) was administered at 6 h intervals four times a day, using the formula AUC = DOSE/CL. The unbound fraction of colistin was assumed to be 10% [25] in the ELF based on the study by Gkoufa et al. and 34% in the plasma based on the study by Mohamed et al.. Gkoufa et al. presented concentrat ...

[2] = Individual steady-state fAUC of colistin in ELF and plasma by clinical and microbiological outcome; assay type: in vivo, human; conditions: for fAUC, median (IQR): steady state over 24 h
Method: as §1, with “concentration–time profiles of colistin predicted through simulations, assuming unbound fractions in the ELF of 0.01, 0.015, 0.05, and 0.099 [25]. From these, we approximated the unbound fraction at 0.1 by rounding 0.099. Meanwhile, Mohamed et al. determined the unbound fraction in plasma using equilibrium dialysis and reported a measured median (range) colistin unbound fraction of 34% (26–41%).” for “concentrat ...”
The PK/PD index for colistin is the area under the free colistin concentration-–time curve at steady state over 24 h divided by the pathogen minimum inhibitory concentration (fAUC/MIC). Since we were unable to obtain MIC values for A. baumannii, we evaluated the relationship between the PK and PD of colistin by comparing the fAUC of each patient in accordance with their clinical outcomes and microbiological outcomes. AUC was calculated by dividing the daily dose by patient, which was the individual post hoc Bayesian estimate of the developed PK model. […] The Wilcoxon rank-sum test was used to assess the relationships between fAUC and clinical outcomes, and the Kruskal–Wallis test was used to investigate the association between fAUC and microbiological outcomes. Additionally, leveraging typical PK parameter values from final models of ELF and plasma samples, we simulated concentration-time profiles of colistin for nebulization doses of 25 mg, 50 mg, 75 mg, 100 mg, and 125 mg in patients. Subsequently, we generated concentration–time plots and computed fAUC values.

For `CC[C@H](C)CCCCC(=O)N[C@@H](CCN)C(=O)N[C@H](C(=O)N[C@@H](CCN)C(=O)N[C@H]1CCNC(=O)[C@H]([C@@H](C)O)NC(=O)[C@H](CCN)NC(=O)[C@H](CCN)NC(=O)[C@H](CC(C)C)NC(=O)[C@@H](CC(C)C)NC(=O)[C@H](CCN)NC1=O)[C@@H](C)O` [colistin] (X1-[Dab]T[Dab][Dab][Dab][dL]L[Dab][Dab]T; lactam 4-C), the “Unbound fraction of colistin in the ELF” value ([1]; assumed, rounded from 0.099 used in simulations by Gkoufa et al.) is listed as 10%, the “Unbound fraction of colistin in plasma, median” value ([1]; equilibrium dialysis, Mohamed et al.) is listed as 34% and the “fAUC, median (IQR)” value ([2]; ELF, clinical outcome cured/improved, 16 patients, 3.75 MIU CMS/day at 6 h intervals, AUC = dose/CL, bioavailability 9%, unbound fraction 10%) is listed as 36.7 (18.2–62.9) mg/L·h. The “fAUC, median (IQR)” value ([2]; ELF, clinical outcome failed, 4 patients, 3.75 MIU CMS/day, unbound fraction 10%) was 31.7 (15.4–47.8) mg/L·h, the “fAUC, median (IQR)” value ([2]; ELF, microbiological outcome eradicated, 8 patients, 3.75 MIU CMS/day) was 61.2 (12.5–111) mg/L·h and the “fAUC, median (IQR)” value ([2]; ELF, microbiological outcome indeterminate, 2 patients, 3.75 MIU CMS/day) was 33.9 (30.0–37.9) mg/L·h. The “fAUC, median (IQR)” value ([2]; ELF, microbiological outcome persistent, 10 patients, 3.75 MIU CMS/day) was 28.5 (17.7–50.5) mg/L·h, the “fAUC in ELF relative to plasma” value ([2]; cured/improved group, mean values) was “approximately 27.2 times” and the “fAUC in ELF relative to plasma” value ([2]; cured/improved group, median values) was “approximately 26.2 times”. The “fAUC in ELF relative to plasma” value ([2]; eradicated group, mean values) was 39.8 times, the “fAUC in ELF relative to plasma” value ([2]; eradicated group, median values) was 26.0 times and the “fAUC in ELF relative to plasma” value ([2]; failed group, mean values) was “about 14.0 times”. For the same molecule, the “fAUC in ELF relative to plasma” value ([2]; failed group, median values) was 15.9 times, the “fAUC in ELF relative to plasma” value ([2]; indeterminate group, mean values) was 6 times and the “fAUC in ELF relative to plasma” value ([2]; indeterminate group, median values) was 6 times. The “ELF fAUC, cured/improved relative to treatment failure” value ([2]; mean values) was “more than 2.25 times”, the “ELF fAUC, eradicated relative to indeterminate group” value ([2]; mean values) was 3.24 times and the “ELF fAUC, eradicated relative to persistent group” value ([2]; mean values) was 3.48 times. The “ELF fAUC, cured/improved relative to treatment failure” value ([2]; median values) was 1.16 times, the “ELF fAUC, eradicated relative to indeterminate group” value ([2]; median values) was 1.80 times and the “ELF fAUC, eradicated relative to persistent group” value ([2]; median values) was 2.15 times. The “fAUC in ELF relative to plasma” value ([2]; persistent group, mean values) was 18.8 times, the “fAUC in ELF relative to plasma” value ([2]; persistent group, median values) was 18.2 times and the “fAUC, median (IQR)” value ([2]; plasma, clinical outcome cured/improved, 16 patients, 3.75 MIU CMS/day, unbound fraction 34%) was 1.40 (0.752–3.74) mg/L·h. The “fAUC, median (IQR)” value ([2]; plasma, clinical outcome failed, 4 patients, 3.75 MIU CMS/day, unbound fraction 34%) was 2.00 (1.87–2.38) mg/L·h, the “fAUC, median (IQR)” value ([2]; plasma, microbiological outcome eradicated, 8 patients, 3.75 MIU CMS/day) was 2.36 (0.645–4.11) mg/L·h and the “fAUC, median (IQR)” value ([2]; plasma, microbiological outcome indeterminate, 2 patients, 3.75 MIU CMS/day) was 5.96 (5.00–6.91) mg/L·h. The “fAUC, median (IQR)” value ([2]; plasma, microbiological outcome persistent, 10 patients, 3.75 MIU CMS/day) was 1.56 (1.00–2.05) mg/L·h.
